Assays:
[1] = biological target: […] (Cdc25 Peptide, nonphosphorylated); test: GST-WW-domain incubated with peptide on a membrane, immunoblotting with GST antibody; assay type: binding
[…] (Pro-Rich) = Fluorescence anisotropy binding to fluorescein-labeled Pro-rich peptide; settings: GST-WW-domains; † estimated Kd, no plateau at 100 μM WW-domain
phosphorylated tau = test: GST-Pin1 pulldown of tau; assay type: binding; settings: for binding to Cdc2 phosphorylated tau: tau phosphorylated by Cdc2 in vitro
Text: Pin1 binds and regulates the function of a defined subset of mitotic phosphoproteins by interacting with conserved phosphorylated Ser/Thr-Pro motifs that are also recognized by MPM-2, a mitosis-specific, phosphorylation-dependent monoclonal antibody (mAb) (Yaffe, M. B. et al., Science 278:1957-1960 (1997); Shen, M. et al., Genes Dev. 12:706-720 (1 998)). Tau is an MPM-2 antigen phosphorylated on multiple Ser/Thr-Pro motifs during mitosis (Illenberger, S. et al., Mol Biol Cell 9:1495-1512 (1998)). Experiments were undertaken to determine whether Pin1 binds tau. Tau isoform was either synthesized by in vitro transcription and translation in the presence of ^35S-Met or produced in bacteria as an N-terminal His-tagged protein, followed by purification using NTA-Ni columns (Yaffe, M. B. et al., Science 278:1957-1960 (1997); Shen, M. et al., Genes Dev. 12:706-720 (1998)). To generate interphase- and mitosis-specific phosphorylated form of tau, tau was incubated with Xenopus interphase and mitotic extracts, respectively (Shen, M. et al., Genes Dev. 12:706-720 (1998)). To prepare Cdc2 phosphorylated tau, purified recombinant tau was incubated with purified cyclin B/Cdc2 (UBI) for 6 to 12 hr at room temperature in a buffer containing 500 μM cold ATP, plus trace [^32P]-ATP in some experiments, (Vincent, I. et al., J Neurosci 17:3588-3598 (1997)).
Pin1 interactions with tau in AD brains were examined using a GST-Pin1 pulldown assay (Shen, M. et al., Genes Dev. 12:706-720 (1998)). Glutathione beads containing GST or GST-Pin1 were incubated with normal or AD brain extracts, or PHFs purified (Vincent, I. J. and Davies, P. Proc Natl Acad Sci USA 89:2878-2882 (1992)), and proteins associated with the beads were subjected to immunoblotting analysis using CP27, which recognizes all forms of tau. Recombinant and mutant Pin1 proteins were produced as N-terminal GST or His-tagged fusion proteins (Shen, M. et al., Genes Dev. 12:706-720 (1998)). PHFs were purified by immunoaffinity chromatography (Vincent, I. J. and Davies, P. Proc Natl Acad Sci USA 89:2878-2882 (1992)).
To determine whether Pin1 interacts with pT231-tau, GST-Pin1 beads were used to isolate tau from AD brain extracts or PHFs and T231 phosphorylation detected using CP9. Tau isolated by Pin1 beads was strongly immunoreactive with CP9. […] Thus, Pin1 binds pT231-tau through its WW-domain.

peptide substrate = test: PPIase activity assay with peptide substrate; assay type: biochemical; settings: relative to wild-type protein defined as 100%
Cdc2 phosphorylated tau = test: Binding of Cdc2 phosphorylated tau to Taxol-stabilized microtubules; assay type: biochemical; settings: Pin1 0.1 mg/ml, tau 0.1 mg/ml
Text: The high affinity interaction between Pin 1 and phosphorylated tau can affect the biological activity of tau. Upon phosphorylation by many protein kinases, including Cdc2, tau loses its ability to bind microtubules (MTs) and promote MT assembly (Bramblett, G. T. et al., Neuron 10:1089-1099 (1993); Iqbal, K. et al., FEBS Lett 349:104-108 (1994); Yoshida, H. and Ihara, Y. J Neurochem 61:1183-1186 (1993); Alonso, A. C. et al., Proc Natl Acad Sci USA 91:5562-5566 (1994); Busciglio, J. et al., Neuron 14:879-888 (1995)) although the exact mechanism is not fully understood. To determine whether Pin1 can restore the ability of phosphorylated tau to bind MTs, phosphorylated tau was produced using purified Cdc2 (Vincent, I. et al., J Cell Biol 132:413-425 (1996); Vincent, I. et al., J Neurosci 17:3588-3598 (1997)) and assessed for its ability to bind Taxol-stabilized MTs in the presence or absence of Pin1. […] Pin1 was detected in the fraction of tau-bound MTs confirming interaction between Pin1 and phosphorylated tau.
The effect of Pin1 on the ability of phosphorylated tau to promote MT assembly was determined using light-scattering assays (Bramblett, G. T. et al., Neuron 10:1089-1099(1993); Alonso, A. C. et al., Proc Natl Acad Sci USA 91:5562-5566 (1994); Busciglio, J. et al., Neuron 14:879-888 (1995)). […]

tau-promoted MT assembly = test: Microtubule assembly light-scattering assay (turbidity at 350 nm); assay type: biochemical; settings: 0.05 mg/ml protein, 0.05 mg/ml tau
Description: The effect of Pin1 on the ability of phosphorylated tau to promote MT assembly was determined using light-scattering assays (Bramblett, G. T. et al., Neuron 10:1089-1099(1993); Alonso, A. C. et al., Proc Natl Acad Sci USA 91:5562-5566 (1994); Busciglio, J. et al., Neuron 14:879-888 (1995)). Briefly, MTs were assembled from phosphocellulose purified bovine tubulin (Cytoskeleton, Inc) and stabilized by Taxol. The nonphosphorylated or Cdc2 phosphorylated recombinant tau (0.1 mg/ml) was incubated with Pin1 (0.1 mg/ml) at 35° C. for 5 min before adding to the MTs. Bound tau was isolated by centrifugation (50,000×g) at 25° C. for 20 min, followed by immunoblotting analysis using CP27 and Pin1 antibodies. The ability of tau to promote MT assembly was determined using well established light-scattering assays. Briefly, the assembly of MTs was initiated by incubating tubulin (2 mg/ml) with or without tau (0.05 mg/ml) in 80 mM PIPES, pH 6.8, 1 mM EGTA, 1 mM MgCl2, 1 mM GTP, 20% glycerol at 35° C. for 2 min. The mixture was then transferred to a 100 μl cuvet and the rate of the MT assembly was monitored at room temperature using the turbidity increase at 350 nm. To examine the effect of Pin1, Pin1 or its mutant (0.05 mg/ml) was pre-incubated with tau or Cdc2 phosphorylated tau (0.05 mg/ml) at 35° C. for 5 min before the MT assembly assays.

Chain of phosphorylated tau (P10636 45-216 isoform P10636-2 limits assumed): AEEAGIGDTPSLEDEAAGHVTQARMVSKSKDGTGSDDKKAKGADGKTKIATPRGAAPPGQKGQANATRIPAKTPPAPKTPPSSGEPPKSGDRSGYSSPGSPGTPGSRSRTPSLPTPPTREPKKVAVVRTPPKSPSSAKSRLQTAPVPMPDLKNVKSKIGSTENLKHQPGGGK
Chain of tau-promoted MT assembly (P10636 45-219 isoform P10636-2 limits assumed): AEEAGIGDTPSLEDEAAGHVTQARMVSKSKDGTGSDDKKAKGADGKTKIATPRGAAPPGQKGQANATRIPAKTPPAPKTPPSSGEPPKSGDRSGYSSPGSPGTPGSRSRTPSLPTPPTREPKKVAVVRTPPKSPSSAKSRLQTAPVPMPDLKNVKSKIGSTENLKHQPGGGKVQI
Chain of Cdc2 phosphorylated tau (P10636 45-219 isoform P10636-2 limits assumed): as above

For “Pin1 WW-domain: N-terminal WW-domain (amino acids 1-54) of Pin1 (MADEEKLPPGWEKRMSRSSGRVYYFNHITNASQWERPSGNSSSGGKNGQGEPAR; left off: a dimerising Fc or GST)”, the “Kd (μM) Cdc25 Peptide EQPLTPVTDL” value [1] was “N.B.*”, the “Kd (μM) Pro-Rich IPGTPPPNYD” value ([…] (Pro-Rich)) was “N.B” and the “binding to Cdc2 phosphorylated tau” value (phosphorylated tau) was “bound Cdc2 phosphorylated tau”.

For “Pin1: wild-type human prolyl isomerase (PPIase) Pin1 with N-terminal WW-domain; tag cleaved in Table 2”, the “PPlase Activity (%)” value (peptide substrate) was 100%, the “binding to tau of brain extracts” value (phosphorylated tau; AD brain extracts, PHFs or age-matched normal brain extracts) was “did not bind tau in age-matched normal brain extracts” and the “binding to tau incubated with Xenopus extracts” value (phosphorylated tau; interphase or mitotic extracts) was “did bind tau that was phosphorylated by mitotic extracts”. The “binding to Cdc2 phosphorylated tau” value (phosphorylated tau) was “bound Cdc2 phosphorylated tau”, the “restoration of binding of Cdc2 phosphorylated tau to MTs” value (Cdc2 phosphorylated tau) was “binding was restored” and the “effect on ability of Cdc2 phosphorylated tau to promote MT assembly” value (tau-promoted MT assembly) was “restored the ability of Cdc2 phosphorylated tau to promote MT assembly”. The “effect on ability of nonphosphorylated tau to promote MT assembly” value (tau-promoted MT assembly) was “no effect”.

From patent US6495376B1, “Methods and compositions for regulating protein-protein interactions” (Beth Israel Deaconess Medical Center, priority 1999, dated 2002)
